{"source": "BigSolDB 2.1", "data": [{"smiles": "CC(=O)C1=C(O)C=C2Oc3c(C(C)=O)c(O)c(C)c(O)c3C2(C)C1=O", "note": "(stereo in doubt)", "values": [{"measurement": "solubility (mole fraction)", "setting": "in acetone, 278.15 K", "value": 0.000422}, {"measurement": "solubility (mole fraction)", "setting": "in acetone, 283.15 K", "value": 0.000454}, {"measurement": "solubility (mole fraction)", "setting": "in acetone, 288.15 K", "value": 0.000541}, {"measurement": "solubility (mole fraction)", "setting": "in acetone, 293.15 K", "value": 0.00061}, {"measurement": "solubility (mole fraction)", "setting": "in acetone, 298.15 K", "value": 0.000747}, {"measurement": "solubility (mole fraction)", "setting": "in acetone, 303.15 K", "value": 0.000879}, {"measurement": "solubility (mole fraction)", "setting": "in acetone, 308.15 K", "value": 0.000978}, {"measurement": "solubility (mole fraction)", "setting": "in acetone, 313.15 K", "value": 0.00121}, {"measurement": "solubility (mole fraction)", "setting": "in acetone, 318.15 K", "value": 0.00165}, {"measurement": "solubility (mole fraction)", "setting": "in acetone, 323.15 K", "value": 0.00197}, {"measurement": "solubility (mole fraction)", "setting": "in ethanol, 288.15 K", "value": "3.09e-05"}, {"measurement": "solubility (mole fraction)", "setting": "in ethanol, 293.15 K", "value": "4.23e-05"}, {"measurement": "solubility (mole fraction)", "setting": "in ethanol, 298.15 K", "value": "5.3e-05"}, {"measurement": "solubility (mole fraction)", "setting": "in ethanol, 303.15 K", "value": "6.8e-05"}, {"measurement": "solubility (mole fraction)", "setting": "in ethanol, 308.15 K", "value": "9.3e-05"}, {"measurement": "solubility (mole fraction)", "setting": "in ethanol, 313.15 K", "value": 0.000114}, {"measurement": "solubility (mole fraction)", "setting": "in ethanol, 318.15 K", "value": 0.000121}, {"measurement": "solubility (mole fraction)", "setting": "in ethanol, 323.15 K", "value": 0.000148}, {"measurement": "solubility (mole fraction)", "setting": "in ethanol, 328.15 K", "value": 0.000203}, {"measurement": "solubility (mole fraction)", "setting": "in ethanol, 333.15 K", "value": 0.000234}, {"measurement": "solubility (mole fraction)", "setting": "in ethanol, 338.15 K", "value": 0.000274}, {"measurement": "solubility (mole fraction)", "setting": "in ethyl acetate, 288.15 K", "value": 0.00109}, {"measurement": "solubility (mole fraction)", "setting": "in ethyl acetate, 293.15 K", "value": 0.00125}, {"measurement": "solubility (mole fraction)", "setting": "in ethyl acetate, 298.15 K", "value": 0.00158}, {"measurement": "solubility (mole fraction)", "setting": "in ethyl acetate, 303.15 K", "value": 0.00189}, {"measurement": "solubility (mole fraction)", "setting": "in ethyl acetate, 308.15 K", "value": 0.00216}, {"measurement": "solubility (mole fraction)", "setting": "in ethyl acetate, 313.15 K", "value": 0.00275}, {"measurement": "solubility (mole fraction)", "setting": "in ethyl acetate, 318.15 K", "value": 0.00314}, {"measurement": "solubility (mole fraction)", "setting": "in ethyl acetate, 323.15 K", "value": 0.0038}, {"measurement": "solubility (mole fraction)", "setting": "in ethyl acetate, 328.15 K", "value": 0.00444}, {"measurement": "solubility (mole fraction)", "setting": "in ethyl acetate, 333.15 K", "value": 0.00518}, {"measurement": "solubility (mole fraction)", "setting": "in ethyl acetate, 338.15 K", "value": 0.00689}, {"measurement": "solubility (mole fraction)", "setting": "in n-hexane, 288.15 K", "value": "5.97e-05"}, {"measurement": "solubility (mole fraction)", "setting": "in n-hexane, 293.15 K", "value": "6.97e-05"}, {"measurement": "solubility (mole fraction)", "setting": "in n-hexane, 298.15 K", "value": "8.06e-05"}, {"measurement": "solubility (mole fraction)", "setting": "in n-hexane, 303.15 K", "value": "9.43e-05"}, {"measurement": "solubility (mole fraction)", "setting": "in n-hexane, 308.15 K", "value": 0.000106}, {"measurement": "solubility (mole fraction)", "setting": "in n-hexane, 313.15 K", "value": 0.000128}, {"measurement": "solubility (mole fraction)", "setting": "in n-hexane, 318.15 K", "value": 0.000149}, {"measurement": "solubility (mole fraction)", "setting": "in n-hexane, 323.15 K", "value": 0.000176}, {"measurement": "solubility (mole fraction)", "setting": "in n-hexane, 328.15 K", "value": 0.000224}, {"measurement": "solubility (mole fraction)", "setting": "in n-hexane, 333.15 K", "value": 0.000256}, {"measurement": "solubility (mole fraction)", "setting": "in n-hexane, 338.15 K", "value": 0.00029}, {"measurement": "solubility (mole fraction)", "setting": "in water, 288.15 K", "value": "2.81e-07"}, {"measurement": "solubility (mole fraction)", "setting": "in water, 293.15 K", "value": "2.99e-07"}, {"measurement": "solubility (mole fraction)", "setting": "in water, 298.15 K", "value": "3.31e-07"}, {"measurement": "solubility (mole fraction)", "setting": "in water, 303.15 K", "value": "3.52e-07"}, {"measurement": "solubility (mole fraction)", "setting": "in water, 308.15 K", "value": "3.75e-07"}, {"measurement": "solubility (mole fraction)", "setting": "in water, 313.15 K", "value": "4.06e-07"}, {"measurement": "solubility (mole fraction)", "setting": "in water, 318.15 K", "value": "4.46e-07"}, {"measurement": "solubility (mole fraction)", "setting": "in water, 323.15 K", "value": "4.77e-07"}, {"measurement": "solubility (mole fraction)", "setting": "in water, 328.15 K", "value": "5.3e-07"}, {"measurement": "solubility (mole fraction)", "setting": "in water, 333.15 K", "value": "5.94e-07"}, {"measurement": "solubility (mole fraction)", "setting": "in water, 338.15 K", "value": "6.61e-07"}]}]}
